Reference: patent publication US20250206777A1, “COMPOUND - DIAGNOSTIC MARKER FOR INTESTINAL CANCER, METHOD FOR DETECTING ENZYMATIC ACTIVITY, METHOD FOR DIAGNOSIS OF INTESTINAL CANCER, KIT COMPRISING THE COMPOUND, USES OF THE COMPOUND AND METHOD FOR THE TREATMENT OF INTESTINAL CANCER” (URTESTE S.A., priority 2022, published 2025)
Values joined by “and” are separate entries in the source; they are usually repeats but may differ in a detail not shown here. Equal values may be shown once. *1 amine or outer side, *2 acyl side, *3 side chain or, on linkers, in order; H or OH if unused. Where no end group is shown, it is not given here. [ ]: non-standard residue; d: D form. Benzoyl(5-NH,2-NO2) = O=C(c1cc(N[*:1])ccc1[N+](=O)[O-])[*:2]; 2Abz = Nc1ccccc1C(=O)O

Tests used:
[1] = system: proteolytic enzymes in urine from a subject suffering from intestinal cancer; assay: Hydrolysis of the chromogenic substrate in urine from subjects with intestinal cancer (absorbance at 405 nm); format: biochemical, human; conditions: for absorbance: 405 nm, 60 minutes, 37° C., pH 8.0, triplicate
Method: The activity of the novel compounds according to the invention was studied in a group of 20 subjects diagnosed with intestinal cancer using the representative compound according to the invention. […] The remaining compounds according to the invention are characterized by the analogous mechanism of action. For this purpose, the representative compound according to the invention, ABZ^1-Asn^2-Phe^3-Ser^4-Pro^5-ANB^6—NH2, was dissolved in dimethyl sulfoxide (at a concentration of 0.5 mg/mL) and then 50 μL of the solution was mixed with 120 μL of a buffer (200 mM Tris-HCl, pH 8.0) and 80 μL of urine from a subject suffering from intestinal cancer. The measurement was performed on a 96-well plate designed for measuring absorbance and each sample was analysed in triplicate at the temperature of 37° C. The duration of the measurement was 60 minutes. During the measurement, the wavelength characteristic for the chromophore (ANB-NH2) being released was monitored at the wavelength 405 nm (range 380-430 nm).

[2] = system: at least one enzyme of the studied material; assay: Dependence of substrate hydrolysis on reaction pH; format: biochemical; conditions: FIG. 4
Method: Furthermore, measurements concerning the dependence of the proteolytic activity of the representative compound according to the invention on the reaction pH were performed.

[3] = system: urine samples taken from healthy persons; assay: Hydrolysis of the chromogenic substrate in urine from healthy subjects (absorbance at 405 nm); format: biochemical, human; conditions: for absorbance: healthy subject, 405 nm, 60 minutes, 37° C., pH 8.0, triplicate
[4] = system: urine taken from a person diagnosed with intestinal cancer; assay: RP HPLC analysis of substrate cleavage in urine from a person with intestinal cancer; format: biochemical, human; conditions: randomly selected urine sample from a person diagnosed with intestinal cancer

cleavage of the substrate ([1]; all samples 1-20 from persons suffering from intestinal cancer): underwent cleavage | absorbance ([1]; urine sample 3, intestinal cancer): 0.035 and 0.034 and 0.036 | absorbance ([1]; urine sample 4, intestinal cancer): 0.0314 and 0.0313 and 0.0385 | absorbance ([1]; urine sample 7, intestinal cancer): 0.041 and 0.039 and 0.04 | absorbance ([1]; urine sample 8, intestinal cancer): 0.0257 and 0.0219 and 0.0258 | absorbance ([1]; urine sample 9, intestinal cancer): 0.056 and 0.064 and 0.06 | absorbance ([1]; urine sample 10, intestinal cancer): 0.025 and 0.024 and 0.026 | absorbance ([1]; urine sample 11, intestinal cancer): 0.015 and 0.016 and 0.027 | absorbance ([1]; urine sample 12, intestinal cancer): 0.0916 and 0.0979 and 0.101 | absorbance ([1]; urine sample 13, intestinal cancer): 0.046 and 0.0337 and 0.0461 | absorbance ([1]; urine sample 14, intestinal cancer): 0.025 and 0.018 and 0.0182 | absorbance ([1]; urine sample 15, intestinal cancer): 0.031 and 0.028 and 0.02 | absorbance ([1]; urine sample 16, intestinal cancer): 0.0183 and 0.0293 and 0.0246 | absorbance ([1]; urine sample 17, intestinal cancer): 0.073 and 0.07 and 0.046 | absorbance ([1]; urine sample 18, intestinal cancer): 0.016 and 0.0186 and 0.0202 | absorbance ([1]; urine sample 19, intestinal cancer): 0.036 and 0.04 and 0.038 | dependence of the proteolytic activity on the reaction pH [2]: maximum activity at alkaline pH
Substance: ABZ-Asn-Phe-Ser-Pro-ANB-NH2 ([2Abz]NFSP-{Benzoyl(5-NH,2-NO2)-NH2}) [chromogenic/fluorogenic peptide substrate; ABZ is 2-aminobenzoic acid, ANB-NH2 is amide of 5-amino-2-nitrobenzoic acid]
absorbance ([3]; urine sample 1Z): 0.00000 | absorbance ([3]; urine sample 2Z): 0.00000 | absorbance ([3]; urine sample 3Z): 0.00000 | absorbance ([3]; urine sample 4Z): 0.00000 | absorbance ([3]; urine sample 5Z): 0.00000 | absorbance ([3]; urine sample 6Z): 0.00000 | absorbance ([3]; urine sample 7Z): 0.00000 | absorbance ([3]; urine sample 8Z): 0.00000 | absorbance ([3]; urine sample 9Z): 0.00000 | absorbance ([3]; urine sample 10Z): 0.00000 | absorbance ([3]; urine sample 11Z): 0.00000 | absorbance ([3]; urine sample 12Z): 0.00000 | absorbance ([3]; urine sample 13Z): 0.00000 | absorbance ([3]; urine sample 14Z): 0.00000 | absorbance ([3]; urine sample 15Z): 0.00000 | absorbance ([3]; urine sample 16Z): 0.00000 | absorbance ([3]; urine sample 17Z): 0.00000 | absorbance ([3]; urine sample 18Z): 0.00000 | absorbance ([3]; urine sample 19Z): 0.00000 | absorbance ([3]; urine sample 20Z): 0.00000 | increase in absorbance / hydrolysis of the tested compound ([3]; urine samples from healthy persons 1Z to 20Z): does not lead to an increase in absorbance | cleavage products by RP HPLC [4]: cleaves into the peptide fragment ABZ-Asn-Phe-Ser-Pro-OH and the chromophore group of the compound (ANB-NH2)
